From patent US7759373B2, “Large conductance calcium-activated K channel opener” (Mitsubishi Tanabe Pharma Corporation, priority 2001, dated 2010)

The compounds below were run on rhythmic bladder contractions induced by substance P (assay: Inhibitory effect on the rhythmic bladder contractions induced by substance P in anesthetized rats). Conditions: time during which frequency of rhythmic contraction was completely inhibited, 0.25 mg/kg of the compound, substance P infusion.
Type: in vivo, rat
Description: Inhibitory effect on the rhythmic bladder contractions induced by substance P in anesthetized rats
For the experiments, Sprague-Dawley female rats (9 to 12 weeks old) weighing between 200 to 300 g were used. After urethane anesthetization (subcutaneously administered with a dose of 1.2 g/kg), cannulae were placed in both right and left femoral veins. One intravenous catheter was used for administration of compounds, and the other was for the substance P (0.33 μg/kg/min) infusion. We also cannulated into ureter to pass urine. Polyethylene catheters were inserted into carotid artery for continuous monitoring of arterial blood pressure and heart rate. For continuous infusion, transurethral bladder catheter was inserted into the bladder through the urethra and tied in place by a ligature around the urethral orifice. One end of the catheter was attached to a pressure transducer in order to measure intravesical pressure. The other end of the catheter was used for infusion of saline into the bladder. After stabilization of blood pressure and heart rate and after the bladder was emptied, cystometry was performed by filling the bladder slowly with about 0.6 ml of saline. After about 10 minutes, intravenous infusion of substance P (0.33 μg/kg/min) was started for stabilization of the micturition reflex. Compounds were administered after stable rhythmic bladder contraction was obtained over 15 minutes. All compounds were dissolved or suspended in saline containing 0.5% Tween 80 for intravenous administration (0.1 ml/kg).
A 100% inhibition time (minute) of the selected compounds of the present invention is shown in the following Table 65 with a rank of A, B or C. These ranges are as mentioned below. A≧20>B≧10>C (minute)
In the case of `CCOC(=O)Cc1nc(-c2ccc(F)cc2)oc1-c1ccccc1` [Preparation Example 296, ethyl 2-(4-fluoro-phenyl)-5-phenyloxazol-4-yl acetate], the “100% inhibition time range” value is reported as “C (A≧20>B≧10>C (minute))”.
For `O=C(Cc1nc(-c2ccc(F)cc2)oc1-c1ccsc1)Nc1cccnc1` [Preparation Example 376], the “100% inhibition time range” value was “C (A≧20>B≧10>C (minute))”.
For `Cc1ccc(-c2nc(CC(=O)O)c(-c3cccs3)o2)cc1` [Preparation Example 156], the “100% inhibition time range” value was “B (A≧20>B≧10>C (minute))”.
With `CCc1nc(-c2ccc(C#N)cc2)[nH]c1-c1ccccc1` [Preparation example 27] the “100% inhibition time range” value was “B (A≧20>B≧10>C (minute))”.
With `O=C(O)Cc1nc(-c2ccc(F)cc2)oc1-c1cccc(F)c1` [Preparation Example 236] the “100% inhibition time range” value was “C (A≧20>B≧10>C (minute))”.
For `CC(C)COc1cc(-c2oc(-c3ccc(F)cc3)nc2CC(=O)O)ccc1O` [Preparation Example 292], the “100% inhibition time range” value was “C (A≧20>B≧10>C (minute))”.
With `N#CCCc1nc(-c2ccc(F)cc2)oc1-c1cccs1` [Preparation Example 337, 4-(2-cyanoethyl)-2-(4-fluorophenyl)-5-(2-thienyl)oxazole] the “100% inhibition time range” value was “C (A≧20>B≧10>C (minute))”.
With `O=C(O)Cc1nc(-c2ccc(F)cc2)oc1-c1ccccc1F` [Preparation Example 162] the “100% inhibition time range” value was “C (A≧20>B≧10>C (minute))”.
For `CSCc1ccc(-c2nc(CC(=O)O)c(-c3ccc(Cl)s3)o2)cc1` [Preparation Example 448], the “100% inhibition time range” value was “C (A≧20>B≧10>C (minute))”.
`CC(C(=O)O)c1nc(-c2ccc(F)cc2)oc1-c1ccsc1` (centres unmarked) [Preparation Example 613] was tested, and the “100% inhibition time range” value was “C (A≧20>B≧10>C (minute))”.
For `COc1cccc(-c2nc(CC(=O)O)c(-c3cccs3)o2)c1` [Preparation Example 263], the “100% inhibition time range” value was “C (A≧20>B≧10>C (minute))”.
For `CCN(CC)C(=O)Cc1nc(-c2ccc(F)cc2)oc1-c1ccsc1` [Preparation Example 617], the “100% inhibition time range” value was “B (A≧20>B≧10>C (minute))”.
`CN(C)c1ccc(-c2nc(CC(=O)O)c(-c3ccc(Cl)s3)s2)cn1` [Preparation Example 608] was tested, and the “100% inhibition time range” value was “B (A≧20>B≧10>C (minute))”.
In the case of `O=C(O)Cc1nc(-c2cc3ccccc3[nH]2)oc1-c1ccc(Cl)s1` [Preparation Example 466], the “100% inhibition time range” value is reported as “B (A≧20>B≧10>C (minute))”.
For `COCc1nc(-c2ccc(C#N)cc2)[nH]c1-c1cccnc1` [Preparation example 125], the “100% inhibition time range” value was “C (A≧20>B≧10>C (minute))”.
For `CN(C)c1ncc(-c2nc(-c3cccs3)c(CC(=O)O)o2)cn1` [Preparation Example 505], the “100% inhibition time range” value was “B (A≧20>B≧10>C (minute))”.
`O=C(O)Cc1sc(-c2ccc(F)cc2)nc1-c1ccc(Cl)s1` [Preparation Example 568] was tested, and the “100% inhibition time range” value was “A (A≧20>B≧10>C (minute))”.
`Clc1cc(-c2ncc(-c3cccnc3)[nH]2)cs1` [Preparation example 24] was tested, and the “100% inhibition time range” value was “C (A≧20>B≧10>C (minute))”.
For `O=C(O)Cc1nc(-c2ccc(F)cc2)oc1-c1ccc(F)c(F)c1` [Preparation Example 166], the “100% inhibition time range” value was “B (A≧20>B≧10>C (minute))”.
For `COc1cc(-c2nc(CC(=O)O)c(-c3ccc(Cl)s3)o2)ccc1O` [Preparation Example 289], the “100% inhibition time range” value was “B (A≧20>B≧10>C (minute))”.
For `O=C(O)Cc1sc(-c2ccc(F)cc2)nc1-c1ccc(Cl)cc1` [Preparation Example 573], the “100% inhibition time range” value was “B (A≧20>B≧10>C (minute))”.
In the case of `COc1ccc(-c2nc(-c3ccc(Cl)c(F)c3)c(CC(=O)O)s2)cc1` [Preparation Example 582], the “100% inhibition time range” value is reported as “A (A≧20>B≧10>C (minute))”.
For `O=C(O)Cc1nc(-c2ccc(F)cc2)oc1-c1ccc2ncccc2c1` [Preparation Example 239], the “100% inhibition time range” value was “C (A≧20>B≧10>C (minute))”.
`COc1ccc(-c2nc(CC(=O)O)c(-c3ccc(Cl)s3)o2)cc1` [Preparation Example 523] was tested, and the “100% inhibition time range” value was “B (A≧20>B≧10>C (minute))”.
With `NC(=O)Cc1nc(-c2ccc(F)cc2)oc1-c1ccsc1` [Preparation Example 615] the “100% inhibition time range” value was “B (A≧20>B≧10>C (minute))”.
`O=C(O)Cc1nc(-c2cc3ccccc3cn2)oc1-c1cccs1` [Preparation Example 276] was tested, and the “100% inhibition time range” value was “C (A≧20>B≧10>C (minute))”.
For `Cl.O=C(O)Cc1nc(-c2ccc(F)cc2)oc1-c1cccnc1` [Preparation Example 484, 2-(4-fluoro-phenyl)-5-(3-pyridyl)oxazol-4-yl acetic acid hydrochloride], the “100% inhibition time range” value was “B (A≧20>B≧10>C (minute))”.
`O=C(O)Cc1sc(-c2cc3ccccc3s2)nc1-c1ccc(Cl)c(F)c1` [Preparation Example 583] was tested, and the “100% inhibition time range” value was “B (A≧20>B≧10>C (minute))”.
`O=C(O)Cc1nc(-c2ccc(F)cc2)oc1-c1ccccc1` [Preparation Example 153] was tested, and the “100% inhibition time range” value was “B (A≧20>B≧10>C (minute))”.
`Cc1cc(-c2oc(-c3ccc(F)cc3)nc2CC(=O)O)sc1CO` [Preparation Example 233] was tested, and the “100% inhibition time range” value was “C (A≧20>B≧10>C (minute))”.
`CSc1ccc(-c2nc(CC(=O)O)c(-c3ccsc3)o2)cc1` [Preparation Example 440] was tested, and the “100% inhibition time range” value was “C (A≧20>B≧10>C (minute))”.
In the case of `CCc1[nH]c(-c2cc(Cl)sc2S(=O)(=O)O)nc1-c1cccnc1.Cl.Cl` [Preparation example 143, 2-(5-Chloro-2-sulfothiophen-3-yl)-5-ethyl-4-(3-pyridyl)-imidazole dihydrochloride], the “100% inhibition time range” value is reported as “C (A≧20>B≧10>C (minute))”.
For `O=C(O)Cc1nc(-c2ccc3c(c2)CCCO3)oc1-c1ccsc1` [Preparation Example 443], the “100% inhibition time range” value was “C (A≧20>B≧10>C (minute))”.
`COc1cc(-c2oc(-c3ccc(F)cc3)nc2CC(=O)O)ccc1O` [Preparation Example 293] was tested, and the “100% inhibition time range” value was “C (A≧20>B≧10>C (minute))”.
For `CN(C)c1cnc(-c2nc(CC(=O)O)c(-c3ccc(Cl)s3)o2)cn1` [Preparation Example 628], the “100% inhibition time range” value was “C (A≧20>B≧10>C (minute))”.
For `O=C(O)Cc1nc(-c2ccc3nccn3c2)oc1-c1ccc(Cl)s1` [Preparation Example 630], the “100% inhibition time range” value was “C (A≧20>B≧10>C (minute))”.
For `O=C(O)Cc1nc(-c2ccc(C(F)(F)F)cc2)oc1-c1cccs1` [Preparation Example 430], the “100% inhibition time range” value was “B (A≧20>B≧10>C (minute))”.
With `CCSc1ccc(-c2nc(CC(=O)O)c(-c3ccc(Cl)s3)o2)cc1` [Preparation Example 449] the “100% inhibition time range” value was “B (A≧20>B≧10>C (minute))”.
For `COc1ccc(-c2nc(CC(=O)O)c(-c3ccc(Cl)s3)o2)cc1O` [Preparation Example 290], the “100% inhibition time range” value was “B (A≧20>B≧10>C (minute))”.
For `O=C(O)Cc1nc(-c2ccc3c(c2)CCCS3)oc1-c1ccc(Cl)s1` [Preparation Example 456], the “100% inhibition time range” value was “C (A≧20>B≧10>C (minute))”.
With `N#Cc1cccc(-c2oc(-c3ccc(F)cc3)nc2CC(=O)O)c1` [Preparation Example 522] the “100% inhibition time range” value was “B (A≧20>B≧10>C (minute))”.
With `Cc1csc(-c2oc(-c3ccc(F)cc3)nc2CC(=O)O)c1` [Preparation Example 164] the “100% inhibition time range” value was “B (A≧20>B≧10>C (minute))”.
`O=C(O)Cc1sc(-c2cc3ccccc3s2)nc1-c1ccc(Cl)s1` [Preparation Example 569] was tested, and the “100% inhibition time range” value was “A (A≧20>B≧10>C (minute))”.
`CN(C)c1ccc(-c2nc(CC(=O)O)c(-c3cccs3)o2)cn1` [Preparation Example 259] was tested, and the “100% inhibition time range” value was “B (A≧20>B≧10>C (minute))”.
With `O=C(O)Cc1nc(-c2cscn2)oc1-c1ccc(Cl)s1` [Preparation Example 274] the “100% inhibition time range” value was “B (A≧20>B≧10>C (minute))”.
In the case of `CN(C)c1ccc(-c2nc(-c3ccc(Cl)s3)c(CC(=O)O)s2)cc1` [Preparation Example 589], the “100% inhibition time range” value is reported as “A (A≧20>B≧10>C (minute))”.
With `O=C(O)Cc1nc(-c2ccc(F)cc2)oc1-c1cccc(Cl)c1` [Preparation Example 241] the “100% inhibition time range” value was “C (A≧20>B≧10>C (minute))”.
For `Cc1ccc(-c2nc(CC(=O)O)c(-c3ccsc3)o2)cc1` [Preparation Example 198], the “100% inhibition time range” value was “C (A≧20>B≧10>C (minute))”.
For `O=C(O)Cc1nc(-c2ccc(Cl)cc2)oc1-c1cccnc1` [Preparation example 142], the “100% inhibition time range” value was “C (A≧20>B≧10>C (minute))”.
`CCc1nc(-c2ccc(F)cc2)oc1-c1cccnc1` [Preparation Example 532] was tested, and the “100% inhibition time range” value was “C (A≧20>B≧10>C (minute))”.
For `CCc1c(-c2cccnc2)nc(-c2ccc(F)cc2)n1C.Cl.Cl` [Preparation example 102, 5-ethyl-2-(4-fluoro-phenyl)-1-methyl-4-(3-pyridyl)imidazole dihydrochloride], the “100% inhibition time range” value was “C (A≧20>B≧10>C (minute))”.
With `O=C(O)Cc1nc(-c2ccc3ncccc3c2)oc1-c1ccsc1` [Preparation Example 442] the “100% inhibition time range” value was “C (A≧20>B≧10>C (minute))”.
With `C[S+]([O-])Cc1nc(-c2ccc(C#N)cc2)[nH]c1-c1ccccc1` (centres unmarked) [Preparation example 137] the “100% inhibition time range” value was “C (A≧20>B≧10>C (minute))”.
For `CC(C)c1ncc(-c2nc(CC(=O)O)c(-c3ccsc3)o2)cn1` [Preparation Example 476], the “100% inhibition time range” value was “B (A≧20>B≧10>C (minute))”.
With `CCOC(=O)Cc1nc(-c2ccc(N(C)C)nc2)oc1-c1cccs1` [Preparation Example 331] the “100% inhibition time range” value was “A (A≧20>B≧10>C (minute))”.
For `COc1ccc(-c2oc(-c3ccc(F)cc3)nc2CC(=O)O)cc1F` [Preparation Example 250], the “100% inhibition time range” value was “B (A≧20>B≧10>C (minute))”.
